For test [1], the target named is T1, histamine H3 receptor (Homo sapiens, UniProt Q9Y5N1).
T1 construct: expressed in transfected cells; host or cells: CHO K1 cells (pSwitch/pGene GeneSwitch system, mifepristone-induced), clone 3H3; membranes
The experiment in a line: Histamine H3 functional antagonist assay (method B). The test is classed as biochemical. The note with it: [35S]-GTPγS SPA, membrane prepared from cultured H3 cells, histamine at EC80, averages of a number of experiments, read-out: functional pKi (fpKi), antagonism (converted). The source says: (§1) A membrane preparation containing histamine H3 receptors may be prepared in accordance with the following procedures:
(§2) (i) Generation of Histamine H3 Cell Line
(§3) DNA encoding the human histamine H3 gene (Huvar, A. et al. (1999) Mol. Pharmacol. 55(6), 1101-1107) was cloned into a holding vector, pcDNA3.1 TOPO (InVitrogen) and its cDNA was isolated from this vector by restriction digestion of plasmid DNA with the enzymes BamH1 and Not-1 and ligated into the inducible expression vector pGene (InVitrogen) digested with the same enzymes. The GeneSwitch™ system (a system where in transgene expression is switched off in the absence of an inducer and switched on in the presence of an inducer) was performed as described in U.S. Pat. Nos. 5,364,791; 5,874,534; and 5,935,934. Ligated DNA was transformed into competent DH5α E. coli host bacterial cells and plated onto Luria Broth (LB) agar containing Zeocin™ (an antibiotic which allows the selection of cells expressing the sh ble gene which is present on pGene and pSwitch) at 50 μg ml^−1. Colonies containing the re-ligated plasmid were identified by restriction analysis. DNA for transfection into mammalian cells was prepared from 250 ml cultures of the host bacterium containing the pGeneH3 plasmid and isolated using a DNA preparation kit (Qiagen Midi-Prep) as per manufacturers guidelines (Qiagen).
(§4) CHO K1 cells previously transfected with the pSwitch regulatory plasmid (InVitrogen) were seeded at 2×10e6 cells per T75 flask in Complete Medium, containing Hams F12 (GIBCOBRL, Life Technologies) medium supplemented with 10% v/v dialysed foetal bovine serum, L-glutamine, and hygromycin (100 μg ml^−1), 24 hours prior to use. Plasmid DNA was transfected into the cells using Lipofectamine plus according to the manufacturers guidelines (InVitrogen). 48 hours post transfection cells were placed into complete medium supplemented with 500 μg ml^−1 Zeocin™.
(§5) 10-14 days post selection 10 nM Mifepristone (InVitrogen), was added to the culture medium to induce the expression of the receptor. 18 hours post induction cells were detached from the flask using ethylenediamine tetra-acetic acid (EDTA; 1:5000; InVitrogen), following several washes with phosphate buffered saline pH 7.4 and resuspended in Sorting Medium containing Minimum Essential Medium (MEM), without phenol red, and supplemented with Earles salts and 3% Foetal Clone II (Hyclone). Approximately 1×10e7 cells were examined for receptor expression by staining with a rabbit polyclonal antibody, 4a, raised against the N-terminal domain of the histamine H3 receptor, incubated on ice for 60 minutes, followed by two washes in sorting medium. Receptor bound antibody was detected by incubation of the cells for 60 minutes on ice with a goat anti rabbit antibody, conjugated with Alexa 488 fluorescence marker (Molecular Probes). Following two further washes with Sorting Medium, cells were filtered through a 50 μm Filcon™ (BD Biosciences) and then analysed on a FACS Vantage SE Flow Cytometer fitted with an Automatic Cell Deposition Unit. Control cells were non-induced cells treated in a similar manner. Positively stained cells were sorted as single cells into 96-well plates, containing Complete Medium containing 500 μg ml^−1 Zeocin™ and allowed to expand before reanalysis for receptor expression via antibody and ligand binding studies. One clone, 3H3, was selected for membrane preparation.
(ii) Membrane Preparation from Cultured Cells
All steps of the protocol are carried out at 4° C. and with pre-cooled reagents. The cell pellet is resuspended in 10 volumes of homogenisation buffer (50 mM N-2-hydroxyethylpiperazine-N′-2-ethanesulfonic acid (HEPES), 1 mM ethylenediamine tetra-acetic acid (EDTA), pH 7.4 with KOH, supplemented with 10e-6M leupeptin (acetyl-leucyl-leucyl-arginal; Sigma L2884), 25 μg/ml bacitracin (Sigma B0125), 1 mM phenylmethylsulfonyl fluoride (PMSF) and 2×10e-6M pepstain A (Sigma)). […]

Test [2] has as its target T1, histamine H3 receptor. The test is described as follows: Histamine H3 functional antagonist assay (method A). The test is classed as biochemical. As to conditions: [35S]-GTPγS SPA, membrane prepared from cultured H3 cells, histamine at EC80, averages of a number of experiments, read-out: functional pKi (fpKi), antagonism (converted).
From the text: as §1, §2, §3, §4, §5
(ii) Membrane Preparation from Cultured Cells […]

Structures can show the parent of a compound that is named as a salt. A value given as a limit tells only on which side of the number the result lay.

T1 sequence (Q9Y5N1 whole entry): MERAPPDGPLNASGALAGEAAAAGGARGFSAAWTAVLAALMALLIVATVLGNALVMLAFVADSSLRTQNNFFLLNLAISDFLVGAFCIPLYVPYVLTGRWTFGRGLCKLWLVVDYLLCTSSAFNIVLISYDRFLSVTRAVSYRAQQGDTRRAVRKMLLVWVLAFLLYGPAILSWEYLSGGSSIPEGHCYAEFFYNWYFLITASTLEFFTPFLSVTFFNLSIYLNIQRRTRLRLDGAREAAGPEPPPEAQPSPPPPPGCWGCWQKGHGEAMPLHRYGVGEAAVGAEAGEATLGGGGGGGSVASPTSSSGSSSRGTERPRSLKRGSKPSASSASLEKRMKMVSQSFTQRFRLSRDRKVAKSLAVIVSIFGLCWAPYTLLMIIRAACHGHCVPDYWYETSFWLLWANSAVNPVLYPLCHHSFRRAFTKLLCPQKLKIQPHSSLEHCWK

Take `O=C(C1CCN(c2ccc(C(F)(F)F)nc2)C1)N1CCCN(C2CCC2)CC1` (racemic) [Example E17, (R,S)-1-Cyclobutyl-4-({1-[6-(trifluoromethyl)-3-pyridinyl]-3-pyrrolidinyl}carbonyl)hexahydro-1H-1,4-diazepine]: the Ki was no more than 0.316 nM on histamine H3 receptor [1] and less than 0.316 nM on histamine H3 receptor [2]. For `CC(C)N1CCCN(C(=O)C2CCN(c3ccc(C(F)(F)F)nc3)C2)CC1` (racemic) [Example E22, (R,S)-1-(1-Methylethyl)-4-({(1-[6-(trifluoromethyl)-3-pyridinyl]-3-pyrrolidinyl}carbonyl)hexahydro-1H-1,4-diazepine hydrochloride], the Ki at histamine H3 receptor [2] was less than 10 nM. For the compound `O=C(C1CCN(c2ccnc(C(F)(F)F)c2)C1)N1CCCN(C2CCC2)CC1` (racemic) [Example E23, (R,S)-1-Cyclobutyl-4-({1-[2-(trifluoromethyl)-4-pyridinyl]-3-pyrrolidinyl}carbonyl)hexahydro-1H-1,4-diazepine hydrochloride], the Ki at histamine H3 receptor [2] is less than 0.316 nM.

In the case of `O=C([C@@H]1CCN(c2ccc(C(F)(F)F)nc2)C1)N1CCCN(C2CCC2)CC1` (single isomer, unassigned) [Example E17A, hydrochloride], the Ki on histamine H3 receptor [2] is less than 0.316 nM.

Regarding `O=C([C@H]1CCN(c2ccc(C(F)(F)F)nc2)C1)N1CCCN(C2CCC2)CC1` (single isomer, unassigned) [Example E17B, hydrochloride], the Ki at histamine H3 receptor [2] was less than 0.316 nM. For the compound `Cc1nnc(-c2ccc(N3CC[C@H](C(=O)N4CCN(C(C)C)CC4)C3)cc2)o1` [Example E30, 1-(1-Methylethyl)-4-({(3S)-1-[4-(5-methyl-1,3,4-oxadiazol-2-yl)phenyl]-3-pyrrolidinyl}carbonyl)piperazine], at histamine H3 receptor [1], the Ki is no more than 0.316 nM. As to `Cc1nc(-c2ccc(N3CC[C@H](C(=O)N4CCN(C(C)C)CC4)C3)cc2)co1` [Example E32A, 1-(1-Methylethyl)-4-({(3S)-1-[4-(2-methyl-1,3-oxazol-4-yl)phenyl]-3-pyrrolidinyl}carbonyl)piperazine], the Ki at histamine H3 receptor [1] was no more than 0.316 nM. On to `Cc1nc(-c2ccc(N3CC[C@H](C(=O)N4CCN(C(C)C)CC4)C3)cc2)no1` [Example E33, 1-(1-Methylethyl)-4-({(3S)-1-[4-(5-methyl-1,2,4-oxadiazol-3-yl)phenyl]-3-pyrrolidinyl}carbonyl)piperazine], for which the Ki at histamine H3 receptor [1] was no more than 0.316 nM. On the same count and under the same terms, under `Cc1ncc(-c2ccc(N3CC[C@H](C(=O)N4CCN(C(C)C)CC4)C3)cc2)o1` [Example E34, 1-(1-Methylethyl)-4-({(3S)-1-[4-(2-methyl-1,3-oxazol-5-yl)phenyl]-3-pyrrolidinyl}carbonyl)piperazine] stands no more than 0.316 nM; under `CC(C)N1CCN(C(=O)[C@H]2CCN(c3ccc(C#N)cc3)C2)CC1` [Example E36, 4-((3S)-3-{[4-(1-Methylethyl)-1-piperazinyl]carbonyl}-1-pyrrolidinyl)benzonitrile hydrochloride], no more than 0.316 nM. On to `CC(C)N1CCN(C(=O)[C@H]2CCN(c3ccc(-c4nnc(-c5ccccc5)o4)cc3)C2)CC1` [Example E40, 1-(1-Methylethyl)-4-({(3S)-1-[4-(5-phenyl-1,3,4-oxadiazol-2-yl)phenyl]-3-pyrrolidinyl}carbonyl)piperazine], for which the Ki at histamine H3 receptor [1] is no more than 0.316 nM. Still for that read-out and setting: to `CC(C)N1CCN(C(=O)[C@H]2CCN(c3ccc(-c4ccno4)cc3)C2)CC1` [Example E41, 1-({(3S)-1-[4-(5-isoxazolyl)phenyl]-3-pyrrolidinyl}carbonyl)-4-(1-methylethyl)piperazine] belongs no more than 0.316 nM; to `CC(C)N1CCN(C(=O)[C@H]2CCN(c3ccc(-n4ccnc4)cc3)C2)CC1` [Example E43, 1-({(3S)-1-[4-(1H-imidazol-1-yl)phenyl]-3-pyrrolidinyl}carbonyl)-4-(1-methylethyl)piperazine], no more than 0.316 nM. On to `Cc1nnc(-c2ccc(N3CC[C@H](C(=O)N4CCCN(C(C)C)CC4)C3)cc2)o1` [Example E47, 1-(1-Methylethyl)-4-({(3S)-1-[4-(5-methyl-1,3,4-oxadiazol-2-yl)phenyl]-3-pyrrolidinyl}carbonyl)hexahydro-1H-1,4-diazepine hydrochloride], for which, on histamine H3 receptor [1], the Ki was no more than 0.316 nM. On the same count and under the same terms, under `CCc1noc(-c2ccc(N3CC[C@H](C(=O)N4CCCN(C(C)C)CC4)C3)cc2)n1` [Example E48, 1-({(3S)-1-[4-(3-Ethyl-1,2,4-oxadiazol-5-yl)phenyl]-3-pyrrolidinyl}carbonyl)-4-(1-methylethyl)hexahydro-1H-1,4-diazepine hydrochloride] stands no more than 0.316 nM; under `CCc1noc(-c2ccc(N3CC[C@H](C(=O)N4CCN(C(C)C)CC4)C3)cc2)n1` [Example E49, 1-({(3S)-1-[4-(3-Ethyl-1,2,4-oxadiazol-5-yl)phenyl]-3-pyrrolidinyl}carbonyl)-4-(1-methylethyl)piperazine hydrochloride], no more than 0.316 nM; under `Cc1noc(-c2ccc(N3CC[C@H](C(=O)N4CCN(C5CCC5)CC4)C3)cn2)n1` [Example E51, 1-Cyclobutyl-4-({(3S)-1-[6-(3-methyl-1,2,4-oxadiazol-5-yl)-3-pyridinyl]-3-pyrrolidinyl}carbonyl)piperazine hydrochloride], no more than 0.316 nM.

For `Cc1noc(-c2ccc(N3CC[C@H](C(=O)N4CCN(C5CCC5)CC4)C3)cc2F)n1` [Example E52, 1-Cyclobutyl-4-({(3S)-1-[3-fluoro-4-(3-methyl-1,2,4-oxadiazol-5-yl)phenyl]-3-pyrrolidinyl}carbonyl)piperazine hydrochloride], the Ki on histamine H3 receptor [1] is no more than 0.316 nM.

On to `Cc1noc(-c2ccc(N3CC[C@H](C(=O)N4CCCN(C(C)C)CC4)C3)cn2)n1` [Example E53, 1-(1-Methylethyl)-4-({(3S)-1-[6-(3-methyl-1,2,4-oxadiazol-5-yl)-3-pyridinyl]-3-pyrrolidinyl}carbonyl)hexahydro-1H-1,4-diazepine hydrochloride], for which the Ki on histamine H3 receptor [1] was no more than 0.316 nM. Still for that read-out and setting: under `Cc1noc(-c2ccc(N3CC[C@H](C(=O)N4CCN(C(C)C)CC4)C3)cn2)n1` [Example E54, 1-(1-Methylethyl)-4-({(3S)-1-[6-(3-methyl-1,2,4-oxadiazol-5-yl)-3-pyridinyl]-3-pyrrolidinyl}carbonyl)piperazine hydrochloride] stands no more than 0.316 nM. The same measure, in the same setting: under `Cc1cn(-c2ccc(N3CC[C@H](C(=O)N4CCN(C(C)C)CC4)C3)cc2)cn1` [Example E55, 1-(1-Methylethyl)-4-({(3S)-1-[4-(4-methyl-1H-imidazol-1-yl)phenyl]-3-pyrrolidinyl}carbonyl)piperazine dihydrochloride] stands no more than 0.316 nM; under `Cc1noc(-c2ccc(N3CC[C@H](C(=O)N4CCCN(CC5CC5)CC4)C3)cn2)n1` [Example E58, hydrochloride], no more than 0.316 nM.

The values are drawn from patent publication US20080045506A1 (GLAXO GROUP LIMITED, priority 2004, published 2008).
